Measurements taken from publication PMC5118987 (Antimicrobial Agents and Chemotherapy, 2016).

Columns and labels:
[1] = system: Influenza A/PC/1/73; experiment: microbe, parasite or virus in culture; type: cell-based; settings: NHBE
[2] = system: Influenza B/LEE/40; experiment: microbe, parasite or virus in culture; type: cell-based; settings: NHBE
[3] = in vitro; settings: human
[4] = system: HIV-2 CDC 310319; experiment: Antiviral assay against HIV-2 isolate in fresh human PBMCs (RT endpoint); settings: Human immunodeficiency virus 2, PBMC
[5] = system: HIV-1 clinical isolates; experiment: Antiviral assay against HIV-1 clinical isolates in fresh human PBMCs (RT endpoint)
[6] = in vitro; settings: human; remark: listed apart in the source
[7] = in vitro; settings: human; remark: listed apart in the source
[8] = system: HCV 1b Replicon; experiment: Anti-HCV activity, HCV 1b replicon; settings: Hepatitis C virus, Huh-7
[9] = system: HCV 2a Replicon; experiment: Anti-HCV activity, HCV 2a replicon; settings: Hepatitis C virus, Huh-7
[10] = system: HRV (mixture of HRV1A, HRV14, HRV16); experiment: microbe, parasite or virus in culture; type: cell-based; settings: Human rhinovirus sp., H1-HeLa
[11] = in vitro; settings: human; remark: listed apart in the source
[12] = system: RSV strain A2; experiment: microbe, parasite or virus in culture; type: cell-based, respiratory syncytial virus; settings: read-out: EC50
[13] = system: HEp-2 Cells

Nc1nc2c(ncn2[C@@H]2O[C@H](CO)[C@@H](O)[C@H]2F)c(=O)[nH]1 [2'-FDG, 2′-fluoro-2′-deoxyguanosine]
EC50 [1]: 6000 nM | EC50 [2]: 14000 nM | CC50 [3]: > 100000 nM

Cc1cn([C@H]2C[C@H](N=[N+]=[N-])[C@@H](CO)O2)c(=O)[nH]c1=O [AZT, zidovudine]
EC50 [4]: 9.3 ± 4.6 nM | EC50 ([5]; Human immunodeficiency virus 1, BAL, PBMC, HIV-1 subtype B isolate BaL, human PBMCs): 3.8 ± 0.6 nM | EC50 ([5]; Human immunodeficiency virus 1, PBMC, HIV-1 subtype A isolate 92RW016, human PBMCs): 2 ± 0.3 nM | EC50 ([5]; Human immunodeficiency virus 1, PBMC, HIV-1 subtype A isolate 92UG037, human PBMCs): 11.2 ± 3.7 nM | EC50 ([5]; Human immunodeficiency virus 1, PBMC, HIV-1 subtype B isolate 89BZ_167, human PBMCs): 3.6 ± 0.8 nM | EC50 ([5]; Human immunodeficiency virus 1, PBMC, HIV-1 subtype B isolate 91US001, human PBMCs): 5.5 ± 2.5 nM | EC50 ([5]; Human immunodeficiency virus 1, PBMC, HIV-1 subtype B isolate 91US004, human PBMCs): 2.6 ± 1.5 nM | EC50 ([5]; Human immunodeficiency virus 1, PBMC, HIV-1 subtype C isolate 93IN905, human PBMCs): 1.6 ± 0.7 nM | EC50 ([5]; Human immunodeficiency virus 1, PBMC, HIV-1 subtype C isolate 98US_MSC5016, human PBMCs): 7.9 ± 4.4 nM | EC50 ([5]; Human immunodeficiency virus 1, PBMC, HIV-1 subtype D isolate 98UG_57128, human PBMCs): 0.07 ± 0.03 nM | EC50 ([5]; Human immunodeficiency virus 1, PBMC, HIV-1 subtype E isolate 96TH_M02138, human PBMCs): 5.5 ± 0.4 nM | EC50 ([5]; Human immunodeficiency virus 1, PBMC, HIV-1 subtype E isolate 96TH_NI1046, human PBMCs): 2.3 ± 0.7 nM | EC50 ([5]; Human immunodeficiency virus 1, PBMC, HIV-1 subtype F isolate 93BR020, human PBMCs): 8.1 ± 7.1 nM

C[C@@]1(O)[C@H](O)[C@@H](CO)O[C@H]1n1cnc2c(N)ncnc21 [Compound 2-CMeA, 2′-C-methyladenosine]
CC50 [6]: 42200 nM | CC50 [7]: > 44000 nM | EC50 [8]: 112 nM | EC50 [9]: 301 nM

CCOC(=O)/C=C/[C@H](C[C@@H]1CCNC1=O)NC(=O)[C@@H](CC(=O)[C@@H](NC(=O)c1cc(C)on1)C(C)C)Cc1ccc(F)cc1 [Rupintrivir, rupintrivir]
EC50 [10]: 30 nM | CC50 [11]: > 10000 nM

O=C(NC1CC1)c1cc2c(s1)-c1ccccc1N(C(=O)c1ccc(NC(=O)c3ccccc3-c3ccccc3)cc1)CC2 [YM-53403]
EC50 [12]: 350 nM | CC50 [13]: > 50000 nM
